Measurements taken from PMC11705955, “Lack of activity of HIV-1 integrase strand-transfer inhibitors on recombinase activating gene (RAG) activity at clinically relevant concentrations” (Microbiology Spectrum, 2024).

Key:
[1] = test system: murine mCherry-core RAG1 / mCherry-RAG2 V(D)J recombination in Expi293F cells; experiment: Extrachromosomal cell-based V(D)J recombination assay (GFP reporter, flow cytometry)
Source text: To further evaluate the effect of HIV-1 integrase inhibitors on RAG activity in a cellular context, we optimized a novel extrachromosomal cell-based V(D)J recombination assay, enabling assessment of multiple compounds in a dose–response manner by flow cytometry ([33]). The schematic of FL murine RAG1 and RAG2 proteins, including the active site residues (DDE motif) in RAG1 and catalytically essential core regions of each protein, are shown in Fig. 5A. The cell-based assay used vectors that encode for the core RAG1 protein (instead of the FL version) and FL murine RAG2 expressed as C-terminal fusions to mCherry, termed mCherry-core RAG1 and mCherry-RAG2. The core regions of each RAG protein are sufficient to catalyze V(D)J recombination, whereas the non-core regions function to regulate the recombination reaction ([13]). […] The consensus RSS used in this assay contains a conserved heptamer and nonamer separated by 12 or 23 non-conserved bp (12RSS and 23RSS) (Fig. 5B). A general schematic of the design for the plasmid substrate with the 12RSS and 23RSS orientations before and after V(D)J recombination is presented in Fig. 5C. More specifically, the plasmid substrate pMAXgfp-INV was designed with a 12RSS and a 23RSS flanking each side of the Pontellina plumata green fluorescent protein gene (termed maxGFP), where the gene is in an inverted orientation relative to the CMV promoter (Fig. 5D). The RSSs are positioned in a co-linear orientation, such that successful V(D)J recombination activity will result in inversion of the maxGFP gene to place it in a transcriptionally active orientation with resulting expression of GFP. Detection of GFP-expressing cells using microscopy and flow cytometry was used as a direct readout of V(D)J recombination activity.
For the recombination assay, the pMAXgfp-INV plasmid substrate and RAG1/RAG2 expression vectors (mCherry-core RAG1 and mCherry-RAG2) were transiently transfected into Expi293 cells in the absence or presence of integrase inhibitors and were assessed via microscopy and flow cytometry. The fluorescence signal from the mCherry-tag is used to assess transfection efficiency of RAG1/RAG2 vectors (Fig. 6A). We observed that transfection of the pMAXgfp-INV substrate into Expi293 cells with RAG1/RAG2 expression vectors yielded robust GFP expression 48 h post-transfection in the cells treated with vehicle control (0.1% dimethyl sulfoxide [DMSO]) (Fig. 6A). […] NU7026 inhibits double-strand break repair, which is a necessary step after DNA cleavage by RAG enzymes, and thus serves as an indirect inhibitor of RAG activity ([35]).
To test the effect of HIV-1 integrase inhibitors on V(D)J recombination activity, we optimized an extrachromosomal cell-based V(D)J recombination assay ([33]). Briefly, Expi293 cells were plated at 1 × 10^6 cells/mL in six-well plates in Gibco Expi293 expression media the day before transfection. The next day, the Expi293 cells were co-transfected with three separate vectors, pMAXgfp-INV plasmid substrate, mCherry-core RAG1, and mCherry-RAG2 expression vectors with a 4:1 transfection reagent:DNA ratio using ExpiFectamine 293 transfection reagent (Gibco). Vehicle or candidate inhibitors were added to cell samples 2 h after transfection, with six different concentrations of each inhibitor added to separate wells. Fivefold dilutions for each inhibitor starting from 10 µM were tested.
Experiments were performed with six separate inhibitors in at least three independent experiments. Two negative control conditions for recombination activity were performed in parallel and include (i) transfections in the presence of NU7026 at 30 and 50 µM (Abcam) and (ii) using a modified pMAXgfp-INV substrate containing two 12RSSs (instead of one 12RSS and one 23RSS) that is inefficiently recombined by the RAG proteins. Vehicle control (0.1% DMSO) served as the positive control for GFP expression. The fluorescence signal from the mCherry tag was used to assess transfection efficiency. […]

[2] = target: T1, recombinant human core RAG1 (AA387-1011)/core RAG2 (AA1-387) in the presence of HMGB1 (Homo sapiens, UniProt P15918+P55895); experiment: Biochemical RAG DNA cleavage assay (gel-based, dsDNA 12RSS/23RSS substrate); details: 25 nM RAG1-RAG2, 575 nM HMGB1, 10 nM dsDNA, 5 mM MgCl2, 1 h 37°C, no serum
T1 construct: made in house; host or cells: RAG1/RAG2 co-expressed in Expi293F GnTI human cells; HMGB1 in E. coli BL21DE3
T1 sequence (P15918 387-1011): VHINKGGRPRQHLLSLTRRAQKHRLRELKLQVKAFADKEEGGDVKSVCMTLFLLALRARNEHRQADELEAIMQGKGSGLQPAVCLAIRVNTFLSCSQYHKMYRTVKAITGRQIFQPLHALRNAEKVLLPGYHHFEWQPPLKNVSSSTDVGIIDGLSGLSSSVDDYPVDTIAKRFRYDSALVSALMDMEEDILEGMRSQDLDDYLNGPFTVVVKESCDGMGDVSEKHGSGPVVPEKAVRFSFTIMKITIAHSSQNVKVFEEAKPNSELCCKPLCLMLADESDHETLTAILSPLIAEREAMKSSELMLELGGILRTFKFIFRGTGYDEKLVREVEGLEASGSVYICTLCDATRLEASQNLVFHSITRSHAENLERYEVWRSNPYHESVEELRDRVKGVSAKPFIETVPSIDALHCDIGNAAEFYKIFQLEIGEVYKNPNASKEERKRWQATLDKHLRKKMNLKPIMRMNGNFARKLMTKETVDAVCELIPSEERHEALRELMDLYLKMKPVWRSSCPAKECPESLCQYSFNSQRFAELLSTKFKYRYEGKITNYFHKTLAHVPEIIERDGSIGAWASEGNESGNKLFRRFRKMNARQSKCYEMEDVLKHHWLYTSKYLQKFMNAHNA
T1 sequence (P55895 1-387): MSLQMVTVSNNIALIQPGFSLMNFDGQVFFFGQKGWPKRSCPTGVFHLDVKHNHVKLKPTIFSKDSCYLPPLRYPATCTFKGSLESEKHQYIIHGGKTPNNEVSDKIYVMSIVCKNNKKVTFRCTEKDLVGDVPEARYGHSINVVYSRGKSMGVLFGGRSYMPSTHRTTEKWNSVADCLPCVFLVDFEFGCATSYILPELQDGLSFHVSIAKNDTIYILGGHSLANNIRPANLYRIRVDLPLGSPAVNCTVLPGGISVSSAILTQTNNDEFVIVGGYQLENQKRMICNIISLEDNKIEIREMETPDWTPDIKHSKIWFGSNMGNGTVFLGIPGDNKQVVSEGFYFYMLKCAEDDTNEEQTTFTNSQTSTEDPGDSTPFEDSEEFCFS
Source text: To directly observe the potential inhibition of RAG1/RAG2, we measured the effect of INSTIs on DNA cleavage by RAG1/RAG2 in the presence of HMGB1. This biochemical system utilizes pre-assembled recombinant human core RAG1 (AA387-1011)/core RAG2 (AA1-387) in the presence of excess truncated HMGB1 (AA1-163) and a linear dsDNA RSS substrate, using gel electrophoresis and a fluorescent dye to monitor cleavage products (Fig. 2A) ([24]). The dsDNA RSS substrate, containing both the 12RSS and 23RSS, was designed to have the different cleavage products resolved via gel electrophoresis. RAG1/RAG2 can singly cleave either the 12RSS or the 23RSS, or both, leading to potentially five different products in the reaction (Fig. 2B). HMGB1 orients RAG1/RAG2 for proper binding to the RSS substrate ([16]). We quantified the activity of RAG as the percentage of substrate conversion to a specific cleaved product, as separated by agarose gel electrophoresis and determined by the DNA-binding fluorescent dye. With the 569-bp substrate, a single cleavage of the 12RSS results in a 492-bp dsDNA and a 77-bp hairpin. Cleavage of the 23RSS alone produces a 433-bp dsDNA and a 136-bp hairpin. Successful cleavage of both RSSs results in a 356-bp dsDNA and both of the 77- and 136-bp hairpins. For the RAG activity analysis, we measured the amount of double cleaved product (356 bp) in relation to the amount of substrate (569 bp) at the end of the reaction. The optimal concentrations of RAG1/RAG2, HMGB1, and MgCl2 were determined through titration (Fig. S2). Because there is no direct RAG1/RAG2 inhibitor previously characterized, we used suramin, a polyanionic compound commonly used as a non-specific inhibitor for DNA/RNA binding or processing proteins as a control for inhibition ([25], [26]).
Prior to the cleavage assay, compounds at the designated concentrations were spotted into 96-well plates using the Tecan Digital D300e (Tecan, Mannedorf, Switzerland). RAG1/RAG2 was incubated with HMGB1 and MgCl2 on ice for at least 15 min in a reaction buffer (25-mM 3-(N-morpholino)propanesulfonic acid [MOPS], pH 7.0, 50-mM KCl, and 2-mM DTT). After the initial incubation, the enzyme solution was added to the compound plates and incubated for an additional 15 min at room temperature. dsDNA substrate in reaction buffer was added to the plates to initiate the reaction. The final conditions of the reaction are 25-nM RAG1–RAG2 complex, 575-nM HMGB1, 10-nM dsDNA substrate, and 5-mM MgCl2. After 1 h at 37°C, reactions were quenched by the addition of final concentrations of 0.19% SDS, 45.5-µg/mL Proteinase K, and 60-mM EDTA.
Glycerol was added to a final concentration of 7.6% in each sample, and samples were loaded onto non-denaturing 6% Tris–borate–EDTA (TBE) gels in 1× TBE buffer. The samples were run at 100 V for 1.5 h, and gels were stained with 1× SYBR Gold in 1× TBE for 20 min. The stained gels were imaged with an Amersham Typhoon Biomolecular Imager.
The gel images were analyzed using ImageQuant software (Cytiva). The densities of the 569-bp-length substrate and fully cleaved 356-bp-length product were quantified. The product density was divided by the sum of substrate and product bands to obtain a percent product value. These calculated values were subtracted from a negative control (pre-quenched reaction where EDTA was added before reaction was initiated) and then normalized to the DMSO-treated control. The normalized data were plotted against concentration using GraphPad Prism (version 9.3; GraphPad Software, San Diego, CA, USA).

[3] = 5-day cytotoxicity assay with Cell Titer Glo readout, GALPC3; format: cell-based; details: human
Source text: (§1) Supplemental Table S2. CC50 values for INSTIs in 5- day cytotoxicity as says with Cell Titer
(§2) Expi293F GALPC3 GALHEP HUH7 MRC5 MT4 PBMC PBMC
(§3) Kidney Prostate Hepatoma Hepatoma Lung T-cell line Primary Primary
(§4) (embryonic) cancer cell cell line cell line fibroblast cells

[4] = 5-day cytotoxicity assay with Cell Titer Glo readout, GALHEPG2; format: cell-based; details: human
Source text: as §1, §2, §3, §4

[5] = 5-day cytotoxicity assay with Cell Titer Glo readout, HUH7; format: cell-based; details: human
Source text: as §1, §2, §3, §4

[6] = 5-day cytotoxicity assay with Cell Titer Glo readout, MRC5; format: cell-based; details: human
Source text: as §1, §2, §3, §4

[7] = 5-day cytotoxicity assay with Cell Titer Glo readout, MT4; format: cell-based; details: human
Source text: as §1, §2, §3, §4

[8] = 5-day cytotoxicity assay with Cell Titer Glo readout, PBMC; format: cell-based; details: CC50
Source text: as §1, §2, §3, §4

PBMC primary cells = experiment: as above; format: cell-based; details: 5 day
Source text: as §1, §2, §3, §4

[9] = target: T2, human core RAG1 (AA387-1011), MBP-10N-PreScission-RAG1 (human, UniProt P15918-1 387-1011); experiment: SEC; analytical SEC-HPLC, Superdex 200 Increase 5/150 GL column, 10-µg protein sample; co-expressed and co-purified MBP-tagged core RAG1 and core RAG2; details: both partners purified
T2 construct: also called RAG1 core domain; source: Expi293F GnTI cells, plasmids transfected (co-expressed with core RAG2), purified (MBP-Trap, Superdex 200); not shown: MBP, N-terminal, kept
T2 sequence (looked up): T1 sequence (P15918 387-1011)

With `O=c1cc(N2CCOCC2)oc2c1ccc1ccccc12` [NU7026] the “Effect on percentage of GFP-positive cells / RAG recombination” value ([1]; across concentrations tested, 48 h post-transfection) was “dose-dependent decrease in percentage of GFP-positive cells” and the IC50 ([1]; compound added 2 h after transfection, read 48 h post-transfection, serum-free media, read-out: IC50 in cellular V(D)J recombination assay (% GFP-positive cells)) was 41500 ± 9400 nM.

Work on `Cc1ccc(C(=O)Nc2ccc(S(=O)(=O)O)c3cc(S(=O)(=O)O)cc(S(=O)(=O)O)c23)cc1NC(=O)c1cccc(NC(=O)Nc2cccc(C(=O)Nc3cc(C(=O)Nc4ccc(S(=O)(=O)O)c5cc(S(=O)(=O)O)cc(S(=O)(=O)O)c45)ccc3C)c2)c1` [Suramin] yielded an IC50 [2] of 4500 ± 400 nM.

`COc1ccc(C[C@H](N)C(=O)N[C@H]2[C@@H](O)[C@H](n3cnc4c(N(C)C)ncnc43)O[C@@H]2CO)cc1` [Puromycin] showed a CC50 at 5 day [3] of 390 nM, a CC50 at 5 day [4] of 410 nM and a CC50 at 5 day [5] of 320 nM. It also gave a CC50 at 5 day [6] of 310 nM, a CC50 at 5 day [7] of 210 nM and a CC50 at 5 day [8] of 540 nM. The CC50 (PBMC primary cells) was 500 nM.

B1: human core RAG2 (AA1-387), MBP-5A-RAG2 (domain or fragment, UniProt P55895 1-387, looked up)
chain: T1 sequence (P55895 1-387)
notes: also called RAG2 core domain; source: Expi293F GnTI cells, plasmids transfected (co-expressed with core RAG1), purified (MBP-Trap, Superdex 200); not shown: MBP, N-terminal, kept
B1: binds [9].
